Legend:
Format in all cases: in vivo
[1] = tested on: Amaranthus retroflexus (AMARE); test: Post-emergence herbicidal efficacy at 80 g/ha, greenhouse pot test; settings: visual rating vs untreated control after about 3 weeks
Method in brief: (§1)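 Visual rating of activity versus untreated plants after about 3 greenhouse weeks, 0% meaning control-like and 100% meaning dead. Plants in sandy loam were sprayed at one-leaf stage (2–3 weeks post-sowing) with WP/EC compound suspensions or emulsions, 0.5% additive, 600 l/ha water.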

Setaria viridis (SETVI) [2] = test: as above; settings: visual rating vs untreated control after about 3 weeks
Method in brief: as §1

[3] = tested on: Amaranthus retroflexus (AMARE); test: Pre-emergence herbicide efficacy at 80 g/ha, greenhouse pot test; settings: visual scoring vs untreated control after about 3 weeks
Method in brief: (§2)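 Seeds were sown in pots and covered with soil, then the compound (WP or EC formulation) was sprayed onto the soil surface as an aqueous suspension or emulsion with 0.5% additive. Pots were kept in a greenhouse, and after about 3 weeks activity was scored visually versus untreated controls (100% = plants dead, 0% = like control).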

[4] = tested on: Abutilon theophrasti (ABUTH); test: as above; settings: visual scoring vs untreated control after about 3 weeks
Method in brief: as §2

[5] = tested on: Polygonum convolvulus (POLCO); test: as above; settings: visual scoring vs untreated control after about 3 weeks
Method in brief: as §2

[6] = tested on: Echinochloa crus-galli (ECHCG); test: as above; settings: visual scoring vs untreated control after about 3 weeks
Method in brief: as §2

Viola tricolor (VIOTR) [7] = test: as above; settings: visual scoring vs untreated control after about 3 weeks
Method in brief: as §2

Setaria viridis (SETVI) [8] = test: as above; settings: visual scoring vs untreated control after about 3 weeks
Method in brief: as §2

Veronica persica (VERPE) [9] = test: as above; settings: visual scoring vs untreated control after about 3 weeks
Method in brief: as §2

[10] = tested on: Amaranthus retroflexus (AMARE); test: Pre-emergence herbicide efficacy at 320 g/ha, greenhouse pot test; settings: visual scoring vs untreated control after about 3 weeks
Method in brief: (§3)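 Sandy loam pots held seeds of a single weed species each. The test compound was sprayed pre-emergence in 600 L/ha water with 0.5% additive. Effect was rated visually in % against untreated controls after ~3 weeks.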

[11] = tested on: Abutilon theophrasti (ABUTH); test: as above; settings: visual scoring vs untreated control after about 3 weeks
Method in brief: as §3

Stellaria media (STEME) [12] = test: as above; settings: visual scoring vs untreated control after about 3 weeks
Method in brief: as §3

[13] = tested on: Echinochloa crus-galli (ECHCG); test: as above; settings: visual scoring vs untreated control after about 3 weeks
Method in brief: as §3

[14] = tested on: Alopecurus myosuroides (ALOMY); test: as above; settings: visual scoring vs untreated control after about 3 weeks
Method in brief: as §3

[15] = tested on: Matricaria inodora (MATIN); test: as above; settings: visual scoring vs untreated control after about 3 weeks
Method in brief: as §3

Poa annua (POAAN) [16] = test: as above; settings: visual scoring vs untreated control after about 3 weeks
Method in brief: as §3

Setaria viridis (SETVI) [17] = test: as above; settings: visual scoring vs untreated control after about 3 weeks
Method in brief: as §3

Bassia scoparia (KCHSC) [18] = test: as above
Method in brief: as §3

Veronica persica (VERPE) [19] = test: as above; settings: visual scoring vs untreated control after about 3 weeks
Method in brief: as §3

[20] = tested on: Amaranthus retroflexus (AMARE); test: Post-emergence herbicidal efficacy at 320 g/ha, greenhouse pot test; settings: visual rating vs untreated control after about 3 weeks
Method in brief: (§4)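 Applied onto green plant parts as suspension or emulsion at a 600 L/ha water rate, containing 0.5% additive. Potted weeds in sandy loam were treated at one leaf and assessed visually versus controls about three weeks later.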

[21] = tested on: Abutilon theophrasti (ABUTH); test: as above; settings: visual rating vs untreated control after about 3 weeks
Method in brief: as §4

Stellaria media (STEME) [22] = test: as above; settings: visual rating vs untreated control after about 3 weeks
Method in brief: as §4

Poa annua (POAAN) [23] = test: as above; settings: visual rating vs untreated control after about 3 weeks
Method in brief: as §4

Bassia scoparia (KCHSC) [24] = test: as above; settings: visual rating vs untreated control after about 3 weeks
Method in brief: as §4

Veronica persica (VERPE) [25] = test: as above; settings: 320 g/ha, visual rating vs untreated control after about 3 weeks
Method in brief: as §4

[26] = tested on: Polygonum convolvulus (POLCO); test: Post-emergence herbicidal efficacy at 80 g/ha, greenhouse pot test; settings: visual rating vs untreated control after about 3 weeks
Method in brief: as §1

[27] = tested on: Alopecurus myosuroides (ALOMY); test: Pre-emergence herbicide efficacy at 80 g/ha, greenhouse pot test; settings: visual scoring vs untreated control after about 3 weeks
Method in brief: as §2

[28] = tested on: Matricaria inodora (MATIN); test: as above; settings: visual scoring vs untreated control after about 3 weeks
Method in brief: as §2

Ipomoea purpurea (PHBPU) = test: as above; settings: visual scoring vs untreated control after about 3 weeks
Method in brief: as §2

Lolium rigidum (LOLRI) = test: Pre-emergence herbicide efficacy at 320 g/ha, greenhouse pot test; settings: visual scoring vs untreated control after about 3 weeks
Method in brief: as §3

[29] = tested on: Alopecurus myosuroides (ALOMY); test: Post-emergence herbicidal efficacy at 80 g/ha, greenhouse pot test; settings: visual rating vs untreated control after about 3 weeks
Method in brief: as §1

Viola tricolor (VIOTR) [30] = test: as above; settings: visual rating vs untreated control after about 3 weeks
Method in brief: as §1

[31] = tested on: Digitaria sanguinalis (DIGSA); test: Pre-emergence herbicide efficacy at 80 g/ha, greenhouse pot test; settings: visual scoring vs untreated control after about 3 weeks
Method in brief: as §2

[32] = tested on: Digitaria sanguinalis (DIGSA); test: Pre-emergence herbicide efficacy at 320 g/ha, greenhouse pot test; settings: visual scoring vs untreated control after about 3 weeks
Method in brief: as §3

[33] = tested on: Digitaria sanguinalis (DIGSA); test: Post-emergence herbicidal efficacy at 320 g/ha, greenhouse pot test; settings: visual rating vs untreated control after about 3 weeks
Method in brief: as §4

[34] = dosage 1280 g/ha in Table C6, visual scoring after about 3 weeks

| Structure (SMILES) | Post-emergence efficacy against Amaranthus retroflexus (AMARE) [1] [%] | Post-emergence efficacy against Setaria viridis (SETVI) (Setaria viridis (SETVI) [2]) [%] | Pre-emergence efficacy against Amaranthus retroflexus (AMARE) [3] [%] | Pre-emergence efficacy against Abutilon theophrasti (ABUTH) [4] [%] | Pre-emergence efficacy against Polygonum convolvulus (POLCO) [5] [%] | Pre-emergence efficacy against Echinochloa crus-galli (ECHCG) [6] [%] | Pre-emergence efficacy against Viola tricolor (VIOTR) (Viola tricolor (VIOTR) [7]) [%] | Pre-emergence efficacy against Setaria viridis (SETVI) (Setaria viridis (SETVI) [8]) [%] | Pre-emergence efficacy against Amaranthus retroflexus (AMARE) [10] [%] | Pre-emergence efficacy against Abutilon theophrasti (ABUTH) [11] [%] | Pre-emergence efficacy against Stellaria media (STEME) (Stellaria media (STEME) [12]) [%] | Pre-emergence efficacy against Echinochloa crus-galli (ECHCG) [13] [%] | Pre-emergence efficacy against Matricaria inodora (MATIN) [15] [%] | Pre-emergence efficacy against Poa annua (POAAN) (Poa annua (POAAN) [16]) [%] | Pre-emergence efficacy against Setaria viridis (SETVI) (Setaria viridis (SETVI) [17]) [%] | Pre-emergence efficacy against Bassia scoparia (KCHSC) (Bassia scoparia (KCHSC) [18]; [34]) [%] | Pre-emergence efficacy against Veronica persica (VERPE) (Veronica persica (VERPE) [19]) [%] | Post-emergence efficacy against Amaranthus retroflexus (AMARE) [20] [%] | Post-emergence efficacy against Poa annua (POAAN) (Poa annua (POAAN) [23]) [%] | Post-emergence efficacy against Veronica persica (VERPE) (Veronica persica (VERPE) [25]) [%] | further results |
| --- | --- | --- | --- | --- | --- | --- | --- | --- | --- | --- | --- | --- | --- | --- | --- | --- | --- | --- | --- | --- | --- |
| Cc1cc(C)c(-c2cc(C(F)F)no2)c(Oc2ncc(C(F)(F)F)cn2)n1 [Example I-45] | 80 | 80 | 100 | 90 | 80 | 80 | 90 | 90 | 100 | 100 | 100 | 100 | 100 | 100 | 100 | 100 | 100 | 100 | 100 | 100 | Pre-emergence efficacy against Veronica persica (VERPE) (Veronica persica (VERPE) [9]): 80%; Pre-emergence efficacy against Alopecurus myosuroides (ALOMY) [14]: 100%; Post-emergence efficacy against Abutilon theophrasti (ABUTH) [21]: 90%; Post-emergence action against Stellaria media (STEME) (Stellaria media (STEME) [22]): 100%; Post-emergence efficacy against Bassia scoparia (KCHSC) (Bassia scoparia (KCHSC) [24]): 90% |
| Cc1cc(C)c(-n2cc(I)cn2)c(Oc2ncc(F)cn2)n1 [Example I-294] | 80 | 90 | 100 | 90 | 90 | 90 | 100 | 100 | 100 | 100 | 100 | 100 | 100 | 100 | 100 | 100 | 100 | 100 | 90 | 100 | Post-emergence efficacy against Polygonum convolvulus (POLCO) [26]: 80%; Pre-emergence efficacy against Alopecurus myosuroides (ALOMY) [27]: 90%; Pre-emergence efficacy against Matricaria inodora (MATIN) [28]: 100%; Pre-emergence efficacy against Ipomoea purpurea (PHBPU) (Ipomoea purpurea (PHBPU)): 100%; Pre-emergence efficacy against Lolium rigidum (LOLRI) (Lolium rigidum (LOLRI)): 100%; Post-emergence efficacy against Abutilon theophrasti (ABUTH) [21]: 90%; Post-emergence action against Stellaria media (STEME) (Stellaria media (STEME) [22]): 100% |
| Cc1cc(C)c(-c2cc(C(F)F)on2)c(Oc2ncc(Cl)cn2)n1 [Example I-10] | – | – | 90 | 90 | 90 | – | 100 | – | 100 | 100 | 100 | 100 | 100 | 90 | 90 | – | 100 | – | 100 | 90 | Post-emergence efficacy against Alopecurus myosuroides (ALOMY) [29]: 80%; Post-emergence efficacy against Viola tricolor (VIOTR) (Viola tricolor (VIOTR) [30]): 100%; Pre-emergence efficacy against Digitaria sanguinalis (DIGSA) [31]: 90%; Pre-emergence efficacy against Matricaria inodora (MATIN) [28]: 90%; Pre-emergence efficacy against Lolium rigidum (LOLRI) (Lolium rigidum (LOLRI)): 90%; Pre-emergence efficacy against Digitaria sanguinalis (DIGSA) [32]: 90%; Pre-emergence efficacy against Bassia scoparia (KCHSC) (Bassia scoparia (KCHSC) [18]; 320 g/ha, visual scoring vs untreated control after about 3 weeks): 90%; Post-emergence efficacy against Digitaria sanguinalis (DIGSA) [33]: 100% |
| Cc1cc(C)c(-n2cc(Br)cn2)c(Oc2ncc(F)cn2)n1 [Example I-277] | 80 | 80 | 100 | 90 | 100 | 100 | 100 | 100 | 100 | 100 | 100 | 100 | 90 | 100 | 100 | 100 | 100 | 100 | 90 | 90 | Pre-emergence efficacy against Alopecurus myosuroides (ALOMY) [27]: 80%; Pre-emergence efficacy against Matricaria inodora (MATIN) [28]: 100%; Pre-emergence efficacy against Ipomoea purpurea (PHBPU) (Ipomoea purpurea (PHBPU)): 100%; Pre-emergence efficacy against Veronica persica (VERPE) (Veronica persica (VERPE) [9]): 80%; Post-emergence efficacy against Abutilon theophrasti (ABUTH) [21]: 90%; Post-emergence action against Stellaria media (STEME) (Stellaria media (STEME) [22]): 90%; Post-emergence efficacy against Bassia scoparia (KCHSC) (Bassia scoparia (KCHSC) [24]): 100% |

From patent US20230303549A1, “SUBSTITUTED HETEROARYLOXYPYRIDINES, THE SALTS THEREOF AND THEIR USE AS HERBICIDAL AGENTS” (Bayer Aktiengesellschaft, priority 2020, published 2023)
